Where two headings read alike, the source gives them in different places.
Tests used:
[1] = tested on: Primary T cells; test: Cytotoxicity, viability by flow cytometry; type: cell-based
Experimental: Primary T cells are cultured and treated with different concentrations of the test compound. Viability is analysed by measuring through flow cytometry based techniques the percentage of viable cells, compared to untreated control=100%).

[2] = target: human CDK9/CyclinT kinase complex (Homo sapiens (Human), UniProt P50750); test: In Vitro CDK9/CyclinT Assay (IMAP fluorescent polarization); type: biochemical
Experimental: In Vitro CDK9/CyclinT Assay
The activity of the compounds described in the present invention can be determined by measuring the phosphorylation of a fluorescently-labeled peptide by human CDK9/CyclinT kinase complex by fluorescent polarization using a commercially available IMAP Screening Express Assay Kit (Molecular devices).
Test compounds were diluted in 100% DMSO to 5 mM stock concentration, then further dilutions were made in H2O or 100% DMSO to desirable concentrations. Each reaction consisted of 5 nM enzyme: CDK9/CyclinT (Proqinase cat#0371-0345-1), 400 nM TAMRA-Rbtide (synthetic 15-mer peptide derived from human retinoblastoma tumor suppressor protein labeled with TAMRA dye, Genecust Europe), 12 μM ATP (=Kmapp, Sigma-Aldrich) and kinase buffer: 20 mM MOPS pH 7 (Sigma-Aldrich), 1 mM DTT (Sigma-Aldrich), 10 mM MgCl2 (Sigma-Aldrich), 0.01% Tween 20 (Sigma-Aldrich).
For each reaction, 4 or 6 μl containing TAMRA-Rbtide, ATP and kianse buffer were combined with 2 μl diluted compound in H2O or 0.028 μl compound in 100% DMSO. The kinase reaction was started by the addition of 2 μl diluted enzyme. The reaction was allowed to run for 1 hour at room temperature. The reaction was stopped by adding 15 μl IMAP beads (1:400 beads in progressive (100% buffer A) 1× buffer).

[3] = Table 4, toxic dose 50%, viable cells

human CDK9/CyclinT kinase complex, sequence (P50750 whole entry): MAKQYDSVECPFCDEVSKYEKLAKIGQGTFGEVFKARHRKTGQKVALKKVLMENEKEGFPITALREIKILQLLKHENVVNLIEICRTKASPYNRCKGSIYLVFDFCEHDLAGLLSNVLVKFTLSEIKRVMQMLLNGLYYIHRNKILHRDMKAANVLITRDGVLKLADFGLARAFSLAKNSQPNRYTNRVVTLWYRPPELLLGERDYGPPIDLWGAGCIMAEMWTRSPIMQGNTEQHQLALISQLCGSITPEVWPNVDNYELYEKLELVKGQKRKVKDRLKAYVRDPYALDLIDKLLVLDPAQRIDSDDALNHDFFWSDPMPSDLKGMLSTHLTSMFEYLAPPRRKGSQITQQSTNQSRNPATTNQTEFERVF
human CDK9/CyclinT kinase complex, sequence (O60563 whole entry partner): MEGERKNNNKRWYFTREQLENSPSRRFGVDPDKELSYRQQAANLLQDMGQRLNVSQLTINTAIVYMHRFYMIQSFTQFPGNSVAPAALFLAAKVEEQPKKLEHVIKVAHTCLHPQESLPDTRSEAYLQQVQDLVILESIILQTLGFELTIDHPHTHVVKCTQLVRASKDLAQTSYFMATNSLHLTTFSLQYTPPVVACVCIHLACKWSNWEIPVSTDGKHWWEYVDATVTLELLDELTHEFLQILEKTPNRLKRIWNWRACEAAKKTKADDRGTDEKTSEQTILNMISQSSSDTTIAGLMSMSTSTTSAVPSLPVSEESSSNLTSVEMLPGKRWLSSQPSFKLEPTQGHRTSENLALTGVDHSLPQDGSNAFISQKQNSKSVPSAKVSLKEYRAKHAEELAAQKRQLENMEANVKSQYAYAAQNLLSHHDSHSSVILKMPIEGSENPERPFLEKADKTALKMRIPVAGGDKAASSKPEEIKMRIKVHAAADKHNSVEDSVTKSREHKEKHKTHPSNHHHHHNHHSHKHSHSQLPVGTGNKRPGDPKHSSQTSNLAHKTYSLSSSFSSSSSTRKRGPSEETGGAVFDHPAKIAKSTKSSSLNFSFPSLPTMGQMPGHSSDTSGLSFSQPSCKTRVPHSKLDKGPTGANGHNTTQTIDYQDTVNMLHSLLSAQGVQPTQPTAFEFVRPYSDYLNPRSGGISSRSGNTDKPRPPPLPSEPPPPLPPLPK

COc1ccc(Nc2cc(-c3ccccc3OC)ncn2)cc1C(=O)NCc1ccncc1 [Example 28, 2-Methoxy-5-(6-(2-methoxyphenyl)pyrimidin-4-ylamino)-N-(pyridin-4-ylmethyl)benzamide]
TD50 [1]: >0.5 µM
IC50 [2]: < 1000 nM

COc1ccc(Nc2cc(-c3ccccc3OC)ncn2)cc1C=O [Example 29, 2-Methoxy-5-(6-(2-methoxyphenyl)pyrimidin-4-ylamino)benzaldehyde]
TD50 [1]: >0.5 µM
IC50 ([2]; Table 1): < 1000 nM

COC(=O)c1cc(Nc2cc(-c3ccccc3OC)ncn2)ccc1OC [Example 30, Methyl 2-methoxy-5-(6-(2-methoxyphenyl)pyrimidin-4-ylamino)benzoate]
TD50 [1]: >0.5 µM
IC50 ([2]; Table 1): < 100 nM

COc1ccc(Nc2cc(-c3ccccc3OC)ncn2)cc1C(=O)NN [Example 33, 2-Methoxy-5-(6-(2-methoxyphenyl)pyrimidin-4-ylamino)benzohydrazide]
TD50 [1]: >5 µM
IC50 ([2]; Table 1): < 100 nM

COc1ccc(Nc2cc(-c3ccccc3OC)ncn2)cc1CNc1ccccc1 [Example 34, N-(4-Methoxy-3-((phenylamino)methyl)phenyl)-6-(2-methoxyphenyl)pyrimidin-4-amine]
TD50 [1]: >5 µM
IC50 [2]: < 10000 nM

COc1ccc(Nc2cc(-c3ccccc3OC)ncn2)cc1OCc1ccccc1 [Example 36, N-(3-(Benzyloxy)-4-methoxyphenyl)-6-(2-methoxyphenyl)pyrimidin-4-amine]
TD50 [1, 3]: >5 µM
IC50 [2]: < 10000 nM

COc1ccccc1-c1cc(Nc2ccc(N3CCN(C)CC3)c(S(N)(=O)=O)c2)ncn1 [Example 38, 5-(6-(2-Methoxyphenyl)pyrimidin-4-ylamino)-2-(4-methylpiperazin-1-yl)benzenesulfonamide]
TD50 [1]: <1.5 µM
IC50 ([2]; Table 1): < 100 nM

CCOc1ccc(Nc2cc(-c3ccccc3OC)ncn2)cc1Cn1cnc2ccccc21 [Example 39, N-(3-((1H-Benzo[d]imidazol-1-yl)methyl)-4-ethoxyphenyl)-6-(2-methoxyphenyl)pyrimidin-4-amine]
TD50 [1]: 0.6 µM
IC50 ([2]; Table 1): < 100 nM

COc1ccccc1-c1cc(Nc2ccc(F)c(Cn3cnc4ccccc43)c2)ncn1 [Example 40, N-(3-((1H-Benzo[d]imidazol-1-yl)methyl)-4-fluorophenyl)-6-(2-methoxyphenyl)pyrimidin-4-amine]
TD50 [1]: 0.4 µM
IC50 ([2]; Table 1): < 100 nM

COc1ccccc1-c1cc(Nc2ccc(Cl)c(C(N)=O)c2)ncn1 [Example 44, 2-Chloro-5-(6-(2-methoxyphenyl)pyrimidin-4-ylamino)benzamide]
TD50 [1]: >5 µM
IC50 [2]: < 1000 nM

COc1ccc(Nc2cc(-c3ccccc3OC)ncn2)cc1C(=O)N(C)N [Example 46, 2-Methoxy-5-[6-(2-methoxy-phenyl)-pyrimidin-4-ylamino]-benzoic acid N-methyl-hydrazide]
TD50 [1, 3]: >10 µM
TD50 ([1]; Table 5): >10 µM
IC50 ([2]; Table 1): < 1000 nM
IC50 ([2]; Table 5): < 1000 nM

COc1ccc(-c2cc(Nc3ccc(OC)c(N)c3)ncn2)cc1 [Example 66, 4-Methoxy-N^1-[6-(4-methoxy-phenyl)-pyrimidin-4-yl]-benzene-1,3-diamine]
TD50 [1]: >10 µM
IC50 [2]: > 10000 nM

COc1cccc(-c2cc(Nc3ccc(OC)c(N)c3)ncn2)c1 [Example 68, 4-Methoxy-N^1-[6-(3-methoxy-phenyl)-pyrimidin-4-yl]-benzene-1,3-diamine]
TD50 [1]: >10 µM
IC50 ([2]; Table 1): > 10000 nM

COc1ccc(Nc2cc(-c3ccccc3O)ncn2)cc1N [Example 70, 2-[6-(3-Amino-4-methoxy-phenylamino)-pyrimidin-4-yl]-phenol]
TD50 [1]: >10 µM
IC50 ([2]; Table 1): > 10000 nM

COc1ccc(Nc2cc(-c3ccccc3OCc3ccccc3)ncn2)cc1N [Example 71, N^1-[6-(2-Benzyloxy-phenyl)-pyrimidin-4-yl]-4-methoxy-benzene-1,3-diamine]
TD50 [1]: >10 µM
IC50 ([2]; Table 1): < 1000 nM
IC50 ([2]; Table 5): < 1000 nM

COc1ccc(Nc2cc(-c3ccccc3Oc3ccccc3)ncn2)cc1N [Example 77, 4-Methoxy-N^1-[6-(2-phenoxy-phenyl)-pyrimidin-4-yl]-benzene-1,3-diamine]
TD50 [1]: 10 µM
IC50 ([2]; Table 1): < 10000 nM

COc1ccc(Nc2cc(-c3cccc(F)c3OC)ncn2)cc1N [Example 81, N^1-[6-(3-Fluoro-2-methoxy-phenyl)-pyrimidin-4-yl]-4-methoxy-benzene-1,3-diamine]
TD50 [1]: 3 µM
IC50 [2]: < 10000 nM

COc1ccc(Nc2cc(-c3ccc(F)cc3OC(C)C)ncn2)cc1N [Example 86, N^1-[6-(4-Fluoro-2-isopropoxy-phenyl)-pyrimidin-4-yl]-4-methoxy-benzene-1,3-diamine]
TD50 [1]: 4 µM
IC50 ([2]; Table 1): < 1000 nM

COc1ccccc1-c1cc(Nc2cc(N)c(OC)c(F)c2)ncn1 [Example 88, 5-Fluoro-4-methoxy-N^1-[6-(2-methoxy-phenyl)-pyrimidin-4-yl]-benzene-1,3-diamine]
TD50 [1]: >20 µM
IC50 [2]: < 1000 nM

CCOc1cc(F)ccc1-c1cc(Nc2cc(N)c(OC)c(F)c2)ncn1 [Example 89, N^1-[6-(2-Ethoxy-4-fluoro-phenyl)-pyrimidin-4-yl]-5-fluoro-4-methoxy-benzene-1,3-diamine]
TD50 [1]: >20 µM
IC50 ([2]; Table 1): < 1000 nM

COc1cc(F)ccc1-c1cc(Nc2cc(N)c(OC)c(F)c2)ncn1 [Example 90, 5-Fluoro-N^1-[6-(4-fluoro-2-methoxy-phenyl)-pyrimidin-4-yl]-4-methoxy-benzene-1,3-diamine]
TD50 [1]: >20 µM
IC50 [2]: < 1000 nM

COc1cc(F)c(Nc2cc(-c3ccccc3OC)ncn2)cc1N [Example 92, 4-Fluoro-6-methoxy-N^3-[6-(2-methoxy-phenyl)-pyrimidin-4-yl]-benzene-1,3-diamine]
TD50 [1]: >20 µM
IC50 ([2]; Table 1): < 10000 nM

CCOc1ccc(Nc2cc(-c3ccccc3OC)ncn2)cc1N [Example 101, 4-Ethoxy-N^1-[6-(2-methoxy-phenyl)-pyrimidin-4-yl]-benzene-1,3-diamine]
TD50 [1]: 12 µM
IC50 [2]: < 1000 nM

CCOc1ccc(Nc2cc(-c3ccc(F)cc3OC)ncn2)cc1N [Example 105, 4-Ethoxy-N^1-[6-(4-fluoro-2-methoxy-phenyl)-pyrimidin-4-yl]-benzene-1,3-diamine]
TD50 [1]: 7 µM
IC50 ([2]; Table 1): < 1000 nM

CCOc1ccc(Nc2cc(-c3ccc(F)cc3OC)ncn2)cc1O [Example 114, 2-Ethoxy-5-[6-(4-fluoro-2-methoxy-phenyl)-pyrimidin-4-ylamino]-phenol]
TD50 [1]: 10 µM
IC50 [2]: < 1000 nM

COc1ccc(Nc2cc(-c3ccc(F)cc3OC)ncn2)cc1NC(C)=O [Example 117, N-{5-[6-(4-Fluoro-2-methoxy-phenyl)-pyrimidin-4-ylamino]-2-methoxy-phenyl}-acetamide]
TD50 [1, 3]: >2 µM
IC50 [2]: < 1000 nM

COC(=O)Nc1cc(Nc2cc(-c3ccc(F)cc3OC)ncn2)ccc1OC [Example 118, {5-[6-(4-Fluoro-2-methoxy-phenyl)-pyrimidin-4-ylamino]-2-methoxy-phenyl}-carbamic acid methyl ester]
TD50 [1, 3]: >2 µM
TD50 ([1]; Table 5): >2 µM
IC50 ([2]; Table 1): < 1000 nM
IC50 ([2]; Table 5): < 1000 nM

COc1ccc(Nc2cc(-c3cc(F)ccc3OC)ncn2)cc1O [Example 122, 5-[6-(5-Fluoro-2-methoxy-phenyl)-pyrimidin-4-ylamino]-2-methoxy-phenol]
TD50 [1]: >2 µM
IC50 ([2]; Table 1): < 1000 nM

COc1ccc(Nc2cc(-c3ccc(F)cc3OC)ncn2)cc1OC(C)=O [Example 126, Acetic acid 5-[6-(4-fluoro-2-methoxy-phenyl)-pyrimidin-4-ylamino]-2-methoxy-phenyl ester]
TD50 [1, 3]: >2 µM
IC50 [2]: < 1000 nM

COc1ccccc1-c1cc(Nc2ccc(C(N)=O)c(Cl)c2)ncn1 [Example 132, 2-Chloro-4-[6-(2-methoxy-phenyl)-pyrimidin-4-ylamino]-benzamide]
TD50 [1]: >10 µM
IC50 ([2]; Table 1): < 1000 nM
IC50 ([2]; Table 5): < 1000 nM

COC(=O)c1ccc(Nc2cc(-c3ccccc3OC)ncn2)cc1OC [Example 133, 2-Methoxy-4-[6-(2-methoxy-phenyl)-pyrimidin-4-ylamino]-benzoic acid methyl ester]
TD50 [1]: >10 µM
IC50 ([2]; Table 1): < 1000 nM
IC50 ([2]; Table 5): < 1000 nM

COc1ccccc1-c1cc(Nc2cc(F)c(OC)c(C(N)=O)c2)ncn1 [Example 137, 3-Fluoro-2-methoxy-5-[6-(2-methoxy-phenyl)-pyrimidin-4-ylamino]-benzamide]
TD50 [1]: >2 µM
IC50 ([2]; Table 1): < 10000 nM

COc1cc(F)ccc1-c1cc(Nc2cc(F)c(OC)c(C(N)=O)c2)ncn1 [Example 138, 3-Fluoro-5-[6-(4-fluoro-2-methoxy-phenyl)-pyrimidin-4-ylamino]-2-methoxy-benzamide]
TD50 [1]: >20 µM
IC50 ([2]; Table 1): < 10000 nM

CCOc1cc(F)ccc1-c1cc(Nc2cc(F)c(OC)c(C(N)=O)c2)ncn1 [Example 139, 5-[6-(2-Ethoxy-4-fluoro-phenyl)-pyrimidin-4-ylamino]-3-fluoro-2-methoxy-benzamide]
TD50 [1]: >20 µM
IC50 ([2]; Table 1): < 10000 nM
